Laboratory results from PubChem BioAssay (NCI).
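Assay format: 96-well plates, 48-hour exposure. GI50: concentration for 50% inhibition of growth. The concentration for full growth arrest is given as TGI.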

Key:
Experiment in all cases: NCI-60 cell line screen, 48 h
786-0 renal = tested on: 786-0 renal
A498 renal = tested on: A498 renal
A549 NSCLC = tested on: A549 NSCLC
ACHN renal = tested on: ACHN renal
BT-549 breast = tested on: BT-549 breast
CAKI-1 renal = tested on: CAKI-1 renal
CCRF-CEM leukemia = tested on: CCRF-CEM leukemia
COLO 205 colon = tested on: COLO 205 colon
DU-145 prostate = tested on: DU-145 prostate
EKVX NSCLC = tested on: EKVX NSCLC
HCC-2998 colon = tested on: HCC-2998 colon
HCT-116 colon = tested on: HCT-116 colon
HCT-15 colon = tested on: HCT-15 colon
HL-60(TB) leukemia = tested on: HL-60(TB) leukemia
HOP-62 NSCLC = tested on: HOP-62 NSCLC
HOP-92 NSCLC = tested on: HOP-92 NSCLC
HS 578T breast = tested on: HS 578T breast
HT29 colon = tested on: HT29 colon
IGROV1 ovarian = tested on: IGROV1 ovarian
K-562 leukemia = tested on: K-562 leukemia
KM12 colon = tested on: KM12 colon
LOX IMVI melanoma = tested on: LOX IMVI melanoma
M14 melanoma = tested on: M14 melanoma
MALME-3M melanoma = tested on: MALME-3M melanoma
MCF7 breast = tested on: MCF7 breast
MDA-MB-231 breast = tested on: MDA-MB-231 breast
MDA-MB-435 = tested on: MDA-MB-435
MOLT-4 leukemia = tested on: MOLT-4 leukemia
NCI-H226 lung = tested on: NCI-H226 lung
NCI-H23 lung = tested on: NCI-H23 lung
NCI-H460 lung = tested on: NCI-H460 lung
NCI-H522 lung = tested on: NCI-H522 lung
NCI/ADR-RES ovarian = tested on: NCI/ADR-RES ovarian
OVCAR-3 ovarian = tested on: OVCAR-3 ovarian
OVCAR-4 ovarian = tested on: OVCAR-4 ovarian
OVCAR-5 ovarian = tested on: OVCAR-5 ovarian
PC-3 prostate = tested on: PC-3 prostate
RPMI-8226 leukemia = tested on: RPMI-8226 leukemia
SF-268 CNS = tested on: SF-268 CNS
SF-295 CNS = tested on: SF-295 CNS
SF-539 CNS = tested on: SF-539 CNS
SK-MEL-2 melanoma = tested on: SK-MEL-2 melanoma
SK-MEL-28 melanoma = tested on: SK-MEL-28 melanoma
SK-MEL-5 melanoma = tested on: SK-MEL-5 melanoma
SK-OV-3 ovarian = tested on: SK-OV-3 ovarian
SN12C renal = tested on: SN12C renal
SNB-19 CNS = tested on: SNB-19 CNS
SNB-75 CNS = tested on: SNB-75 CNS
SR leukemia = tested on: SR leukemia
SW-620 colon = tested on: SW-620 colon
T-47D breast = tested on: T-47D breast
TK-10 renal = tested on: TK-10 renal
U251 CNS = tested on: U251 CNS
UACC-257 melanoma = tested on: UACC-257 melanoma
UACC-62 melanoma = tested on: UACC-62 melanoma
UO-31 renal = tested on: UO-31 renal

CCOC(=O)CCSC1=CC(=O)c2nc3ccccc3c3ccnc1c23
GI50 (786-0 renal): 17.5 µM
TGI (786-0 renal): 39.3 µM
GI50 (A498 renal): > 100 µM
TGI (A498 renal): > 100 µM
GI50 (A549 NSCLC): 18.3 µM
TGI (A549 NSCLC): 77.4 µM
GI50 (ACHN renal): 18.6 µM
TGI (ACHN renal): 42.5 µM
GI50 (BT-549 breast): 17.1 µM
TGI (BT-549 breast): 34.3 µM
GI50 (CAKI-1 renal): 16.3 µM
TGI (CAKI-1 renal): 31.9 µM
GI50 (CCRF-CEM leukemia): 3.44 µM
TGI (CCRF-CEM leukemia): > 100 µM
GI50 (COLO 205 colon): 24.9 µM
TGI (COLO 205 colon): > 100 µM
GI50 (DU-145 prostate): 16 µM
TGI (DU-145 prostate): 33.2 µM
GI50 (EKVX NSCLC): 29.4 µM
TGI (EKVX NSCLC): 76.4 µM
GI50 (HCC-2998 colon): 19.2 µM
TGI (HCC-2998 colon): 40.2 µM
GI50 (HCT-116 colon): 17.1 µM
TGI (HCT-116 colon): 76.6 µM
GI50 (HCT-15 colon): 24.8 µM
TGI (HCT-15 colon): 92.9 µM
GI50 (HL-60(TB) leukemia): 26.7 µM
TGI (HL-60(TB) leukemia): > 100 µM
GI50 (HOP-62 NSCLC): 16.4 µM
TGI (HOP-62 NSCLC): 47.7 µM
GI50 (HOP-92 NSCLC): 25.8 µM
TGI (HOP-92 NSCLC): 62.6 µM
GI50 (HS 578T breast): 32.8 µM
TGI (HS 578T breast): > 100 µM
GI50 (HT29 colon): 26.2 µM
TGI (HT29 colon): 53.8 µM
GI50 (IGROV1 ovarian): 22.7 µM
TGI (IGROV1 ovarian): > 100 µM
GI50 (K-562 leukemia): 26.9 µM
TGI (K-562 leukemia): > 100 µM
GI50 (KM12 colon): 15 µM
TGI (KM12 colon): 34.1 µM
GI50 (LOX IMVI melanoma): 27 µM
TGI (LOX IMVI melanoma): > 100 µM
GI50 (M14 melanoma): 11.3 µM
TGI (M14 melanoma): 30.1 µM
GI50 (MALME-3M melanoma): 17.5 µM
TGI (MALME-3M melanoma): 35.4 µM
GI50 (MCF7 breast): 13.3 µM
TGI (MCF7 breast): 38.3 µM
GI50 (MDA-MB-231 breast): 16.7 µM
TGI (MDA-MB-231 breast): 41.6 µM
GI50 (MDA-MB-435): 17.8 µM
TGI (MDA-MB-435): 37.7 µM
GI50 (MOLT-4 leukemia): 7.31 µM
TGI (MOLT-4 leukemia): > 100 µM
GI50 (NCI-H226 lung): 21.8 µM
TGI (NCI-H226 lung): 73.8 µM
GI50 (NCI-H23 lung): 16.3 µM
TGI (NCI-H23 lung): 43.3 µM
GI50 (NCI-H460 lung): 13.4 µM
TGI (NCI-H460 lung): 50.1 µM
GI50 (NCI-H522 lung): 17.4 µM
TGI (NCI-H522 lung): 43 µM
GI50 (NCI/ADR-RES ovarian): 32.8 µM
TGI (NCI/ADR-RES ovarian): > 100 µM
GI50 (OVCAR-3 ovarian): 12.6 µM
TGI (OVCAR-3 ovarian): 37 µM
GI50 (OVCAR-4 ovarian): 15.2 µM
TGI (OVCAR-4 ovarian): 31.7 µM
GI50 (OVCAR-5 ovarian): 27.5 µM
TGI (OVCAR-5 ovarian): 91 µM
GI50 (PC-3 prostate): 13.5 µM
TGI (PC-3 prostate): 38.7 µM
GI50 (RPMI-8226 leukemia): 9.55 µM
TGI (RPMI-8226 leukemia): > 100 µM
GI50 (SF-268 CNS): 17.1 µM
TGI (SF-268 CNS): 39.4 µM
GI50 (SF-295 CNS): 17.1 µM
TGI (SF-295 CNS): 44.3 µM
GI50 (SF-539 CNS): 18.2 µM
TGI (SF-539 CNS): 35.2 µM
GI50 (SK-MEL-2 melanoma): 26.8 µM
TGI (SK-MEL-2 melanoma): 72.8 µM
GI50 (SK-MEL-28 melanoma): 20.2 µM
TGI (SK-MEL-28 melanoma): 41.1 µM
GI50 (SK-MEL-5 melanoma): 13.4 µM
TGI (SK-MEL-5 melanoma): 30.4 µM
GI50 (SK-OV-3 ovarian): 29.3 µM
TGI (SK-OV-3 ovarian): 93.4 µM
GI50 (SN12C renal): 15.7 µM
TGI (SN12C renal): 31.8 µM
GI50 (SNB-19 CNS): 20.5 µM
TGI (SNB-19 CNS): 51.6 µM
GI50 (SNB-75 CNS): 39 µM
TGI (SNB-75 CNS): > 100 µM
GI50 (SR leukemia): 7.59 µM
TGI (SR leukemia): > 100 µM
GI50 (SW-620 colon): 13.9 µM
TGI (SW-620 colon): 41.6 µM
GI50 (T-47D breast): 24.3 µM
TGI (T-47D breast): 76 µM
GI50 (TK-10 renal): 16.7 µM
TGI (TK-10 renal): 32.4 µM
GI50 (U251 CNS): 29.8 µM
TGI (U251 CNS): > 100 µM
GI50 (UACC-257 melanoma): 14.6 µM
TGI (UACC-257 melanoma): 35.7 µM
GI50 (UACC-62 melanoma): 15.8 µM
TGI (UACC-62 melanoma): 31.4 µM
GI50 (UO-31 renal): 16.3 µM
TGI (UO-31 renal): 34.9 µM
